Reference: ChEMBL document CHEMBL1127700, “Iron(III)-chelating resins. IX. Antibacterial activity of a water-insoluble iron(III)-chelating resin” (1994)

How the values were obtained:
Listeria innocua = test: Tested in vitro for percent inhibition of the growth of Listeria inocua at concentration of 20 uM; assay type: functional
Escherichia coli = test: Tested in vitro for percent inhibition of the growth of Escherichia coli at concentration of 20 uM; assay type: functional

SMILES | Growth response (Listeria innocua) | Growth response (Escherichia coli)
CCC(=O)NCCn1ccc(=O)c(O)c1C | 14% | 0%
C=CC(=O)NCCn1ccc(=O)c(O)c1C | 13% | 0%
